Assay results as given in publication PMC5653977 (EMBO Molecular Medicine, 2017).
Structures can show the parent of a compound that is named as a salt.

Each molecule was assayed on NRG1-ERBB4 signaling (assay: Nrg1-ERBB4-PIK3R1 split TEV co-culture compound screen of the NIH Clinical Collection). Settings: NIH Clinical Collection NCC-003 raw data; compounds ranked by Z-score; 'flagged' given instead of a Z-score.
Type: cell-based, human

Q: For `CN1CCN(C2=Nc3ccccc3Oc3ccc(Cl)cc32)CC1` [Loxapine succinate], which Z-SCORE is on record?
A: -1.14

Q: For `CC(=O)O[C@]1(C(C)=O)CC[C@H]2[C@@H]3C=C(C)C4=CC(=O)CC[C@]4(C)[C@H]3CC[C@@]21C` [MEGESTROL ACETATE], which Z-SCORE is on record?
A: -1.44

Q: For `CC(C)(O)c1ccccc1CC[C@@H](SCC1(CC(=O)[O-])CC1)c1cccc(/C=C/c2ccc3ccc(Cl)cc3n2)c1.[Na+]` [MONTELUKAST Na], which Z-SCORE is on record?
A: -1.21

Q: For `CC12CC3CC(C)(C1)CC(N)(C3)C2` [Memantine hydrochloride, reference compound], which Z-SCORE is on record?
A: -1.15

Same assay, conditions: compound screen of the NIH Clinical Collection, sheet raw data NCC-003; compounds ranked by Z-score

Q: `O=C1Nc2ccc(Cl)cc2C(c2ccccc2Cl)=NC1O` (centres unmarked) [Lorazepam] was tested. Which Z-SCORE did it give?
A: 0.53

Q: Which Z-SCORE does the source give for `COc1cc(C)nc(-n2nc(C)cc2OC)n1` [MEPIRIZOLE] here?
A: 0.59

Q: With `Cc1cccc(C)c1NC(=O)C1CCCCN1C` (centres unmarked) [MEPIVACAINE HYDROCHLORIDE] as the molecule, how does the Z-SCORE read?
A: -0.39

Q: Which Z-SCORE does the source give for `C[C@@H](O)[C@H]1C(=O)N2C(C(=O)O)=C(S[C@@H]3CN[C@H](C(=O)N(C)C)C3)[C@H](C)[C@H]12` [MEROPENEM] here?
A: -0.25

Q: How did the Z-SCORE turn out when `C#C[C@]1(O)CC[C@H]2[C@@H]3CCc4cc(OC)ccc4[C@H]3CC[C@@]21C` [MESTRANOL] was run?
A: -0.21

Q: With `C[C@]12CC[C@H](O)CC1=CC[C@@H]1[C@@H]2CC[C@@]2(C)[C@H]1CC[C@]2(C)O` [METHYLANDROSTENEDIOL] as the molecule, how does the Z-SCORE read?
A: 0.32

Q: How did the Z-SCORE turn out when `Cc1ncc([N+](=O)[O-])n1CCO` [METRONIDAZOLE] was run?
A: -0.28

Q: For `Cc1ncc2n1-c1ccc(Cl)cc1C(c1ccccc1F)=NC2` [MIDAZOLAM HCl], which Z-SCORE is on record?
A: 0.91

Q: With `CC#C[C@]1(O)CC[C@H]2[C@@H]3CCC4=CC(=O)CCC4=C3[C@@H](c3ccc(N(C)C)cc3)C[C@@]21C` [MIFEPRISTONE] as the molecule, how does the Z-SCORE read?
A: 0.02

Q: How did the Z-SCORE turn out when `OCCN1C[C@H](O)[C@@H](O)[C@H](O)[C@H]1CO` [MIGLITOL] was run?
A: -0.33

Q: With `Cc1[nH]c(=O)c(C#N)cc1-c1ccncc1` [MILRINONE] as the molecule, how does the Z-SCORE read?
A: -0.04

Q: How did the Z-SCORE turn out when `CCOc1cc(N)c(Cl)cc1C(=O)NCC1CN(Cc2ccc(F)cc2)CCO1` (centres unmarked) [MOSAPRIDE CITRATE] was run?
A: 0.73

Q: With `COc1c(N2C[C@@H]3CCCN[C@@H]3C2)c(F)cc2c(=O)c(C(=O)O)cn(C3CC3)c12` [MOXIFLOXACIN HCl] as the molecule, how does the Z-SCORE read?
A: -0.35

Q: For `COc1nc(C)nc(Cl)c1NC1=NCCN1.Cl` [MOXONIDINE HCl], which Z-SCORE is on record?
A: 0.68

Q: Which Z-SCORE does the source give for `CNCCCC12CCC(c3ccccc31)c1ccccc12.Cl` [Maprotilline HCl] here?
A: 1.18

Q: For `CN1CCCCC1CCN1c2ccccc2Sc2ccc([S+](C)[O-])cc21` (centres unmarked) [Mesoridazine], which Z-SCORE is on record?
A: -0.53

Q: Which Z-SCORE does the source give for `C[C@]12CCC(=O)C[C@@H]1CC[C@@H]1[C@@H]2CC[C@@]2(C)[C@H]1CC[C@]2(C)O` [Mestanolone] here?
A: 1.19

Q: How did the Z-SCORE turn out when `C[C@]12CCC(=O)C=C1CC[C@@H]1[C@@H]2CC[C@@]2(C)[C@H]1CC[C@]2(C)O` [Methyltestosterone] was run?
A: -0.41

Q: For `CC1CCN(CCCC(=O)c2ccc(F)cc2)CC1` [Metylperon], which Z-SCORE is on record?
A: 0.36

Q: For `CCN(CC)C(=O)C1(c2ccccc2)CC1CN` (centres unmarked) [Milnacipran], which Z-SCORE is on record?
A: 0.97

Q: How did the Z-SCORE turn out when `NC(=O)C[S+]([O-])C(c1ccccc1)c1ccccc1` (centres unmarked) [Modafinil] was run?
A: 0.43

Q: `COc1ccccc1N1CCN(CC(O)COc2cccc3ccccc23)CC1` (centres unmarked) [NAFTOPIDIL] was tested. Which Z-SCORE did it give?
A: 0.24

Q: For `COc1ccc2cc([C@H](C)C(=O)O)ccc2c1` [NAPROXEN SODIUM], which Z-SCORE is on record?
A: 0.35

Q: Which Z-SCORE does the source give for `CC(C)[C@H]1CC[C@H](C(=O)N[C@H](Cc2ccccc2)C(=O)O)CC1` [NATEGLINIDE] here?
A: -0.03

Q: `Cc1c(O)cccc1C(=O)N[C@@H](CSc1ccccc1)[C@H](O)CN1C[C@H]2CCCC[C@H]2C[C@H]1C(=O)NC(C)(C)C` [NELFINAVIR MESYLATE] was tested. Which Z-SCORE did it give?
A: 0.24

Q: With `O=C(CCNNC(=O)c1ccncc1)NCc1ccccc1` [NIALAMIDE] as the molecule, how does the Z-SCORE read?
A: 1.7

Q: For `O=C(NCCO[N+](=O)[O-])c1cccnc1` [NICORANDIL], which Z-SCORE is on record?
A: -0.09

Q: Which Z-SCORE does the source give for `NC(=O)c1cccnc1` [NICOTINAMIDE] here?
A: 2.52

Q: Which Z-SCORE does the source give for `COC(=O)C1=C(C)NC(C)=C(C(=O)OC)C1c1ccccc1[N+](=O)[O-]` [NIFEDIPINE] here?
A: 2.68

Q: For `Cl.Cn1c(NCCN(CCO)CCCc2ccc([N+](=O)[O-])cc2)cc(=O)n(C)c1=O` [NIFEKALANT HCl], which Z-SCORE is on record?
A: 1.92

Q: `COCCOC(=O)C1=C(C)NC(C)=C(C(=O)OC(C)C)C1c1cccc([N+](=O)[O-])c1` (centres unmarked) [NIMODIPINE] was tested. Which Z-SCORE did it give?
A: -0.83

Q: With `COC(=O)C1=C(C)NC(C)=C(C(=O)OCC(C)C)C1c1ccccc1[N+](=O)[O-]` (centres unmarked) [NISOLDIPINE] as the molecule, how does the Z-SCORE read?
A: 2.32

Q: Which Z-SCORE does the source give for `CC(=O)Oc1ccccc1C(=O)Nc1ncc([N+](=O)[O-])s1` [NITAZOXANIDE] here?
A: 1.04

Same assay, conditions: compounds at 10 μM, 24 h; PC12 split TEV assay cells co-cultured with Nrg1-expressing PC12 cells; analysed with cellHTS2

Q: How did the Z-SCORE turn out when `CCC[C@@H]1C[C@@H](C(=O)N[C@@H]([C@H]2O[C@H](SC)[C@H](O)[C@@H](O)[C@H]2O)[C@@H](C)O)N(C)C1` [Lincomycin hydrochloride, reference compound] was run?
A: 0.53

Q: How did the Z-SCORE turn out when `CC[C@H](C)C(=O)O[C@H]1C[C@@H](C)C=C2C=C[C@H](C)[C@H](CC[C@@H]3C[C@@H](O)CC(=O)O3)[C@H]21` [Lovastatin, reference compound] was run?
A: flagged

Q: `C[N+]1(C)CCCC(OC(=O)C(O)(c2ccccc2)c2ccccc2)C1` (centres unmarked) [MEPENZOLATE BROMIDE, reference compound] was tested. Which Z-SCORE did it give?
A: -0.58

Q: How did the Z-SCORE turn out when `C[C@H]1C[C@@H]2[C@H]([C@@H](O)C[C@@]3(C)[C@H]2CC[C@]3(O)C(=O)CO)[C@@]2(C)C=CC(=O)C=C12` [METHYLPREDNISOLONE, reference compound] was run?
A: 0.65

Q: With `CC(C)(C(=O)c1cccnc1)c1cccnc1` [METYRAPONE, reference compound] as the molecule, how does the Z-SCORE read?
A: 0.48

Q: For `Clc1ccc(COC(Cn2ccnc2)c2ccc(Cl)cc2Cl)c(Cl)c1` (centres unmarked) [MICONAZOLE NITRATE, reference compound], which Z-SCORE is on record?
A: -0.69

Q: How did the Z-SCORE turn out when `CN(C)c1ccc(O)c2c1C[C@H]1C[C@H]3[C@H](N(C)C)C(O)=C(C(N)=O)C(=O)[C@@]3(O)C(O)=C1C2=O` [MINOCYCLINE HYDROCHLORIDE, reference compound] was run?
A: -0.02

Q: `O=C1c2c(O)ccc(O)c2C(=O)c2c(NCCNCCO)ccc(NCCNCCO)c21` [MITOXANTRONE, reference compound] was tested. Which Z-SCORE did it give?
A: flagged

Q: Which Z-SCORE does the source give for `CCN(CC)CCNC(=O)c1cc(Cl)c(N)cc1OC.Cl` [Maxolon, reference compound] here?
A: -1.12

Q: For `COC(=O)Nc1nc2ccc(C(=O)c3ccccc3)cc2[nH]1` [Mebendazole, reference compound], which Z-SCORE is on record?
A: -4.63

Q: How did the Z-SCORE turn out when `Cc1ccc(Cl)c(Nc2ccccc2C(=O)O)c1Cl` [Meclomen, reference compound] was run?
A: -0.25

Q: How did the Z-SCORE turn out when `CC(=O)O[C@]1(C(C)=O)CC[C@H]2[C@@H]3C[C@H](C)C4=CC(=O)CC[C@]4(C)[C@H]3CC[C@@]21C` [Medroxyprogesterone 17-acetate, reference compound] was run?
A: -1.59

Q: For `CC(=O)[C@H]1CC[C@H]2[C@@H]3C[C@H](C)C4=CC(=O)CC[C@]4(C)[C@H]3[C@@H](O)C[C@]12C` [Medrysone, reference compound], which Z-SCORE is on record?
A: -1.74

Q: How did the Z-SCORE turn out when `Cc1cccc(Nc2ccccc2C(=O)O)c1C` [Mefenamic Acid, reference compound] was run?
A: 0.34

Q: How did the Z-SCORE turn out when `OC(c1cc(C(F)(F)F)nc2c(C(F)(F)F)cccc12)C1CCCCN1` (centres unmarked) [Mefloquine hydrochloride, reference compound] was run?
A: flagged

Q: With `Cc1cnc(NC(=O)C2=C(O)c3ccccc3S(=O)(=O)N2C)s1` [Meloxicam, reference compound] as the molecule, how does the Z-SCORE read?
A: 0.24

Q: With `CC12CC3CC(C)(C1)CC(N)(C3)C2` [Memantine hydrochloride, reference compound] as the molecule, how does the Z-SCORE read?
A: 0.5

Q: With `S=c1[nH]cnc2nc[nH]c12` [Mercaptopurine, reference compound] as the molecule, how does the Z-SCORE read?
A: 0

Q: Which Z-SCORE does the source give for `O=S(=O)(O)CCS` [Mesna, reference compound] here?
A: 0.04

Q: With `CN(C)C(=O)Oc1ccc[n+](C)c1` [Mestinon, reference compound] as the molecule, how does the Z-SCORE read?
A: -0.37

Q: Which Z-SCORE does the source give for `CC(C)NCC(O)c1cc(O)cc(O)c1` (centres unmarked) [Metaproterenol, reference compound] here?
A: -0.11

Q: `CC(=O)/N=c1/sc(S(N)(=O)=O)nn1C` [Methazolamide, reference compound] was tested. Which Z-SCORE did it give?
A: 0.38

Q: For `Cn1cc[nH]c1=S` [Methimazole, reference compound], which Z-SCORE is on record?
A: 3

Q: How did the Z-SCORE turn out when `COc1ccccc1OCC(O)COC(N)=O` (centres unmarked) [Methocarbamol, reference compound] was run?
A: 0.65

Q: With `COc1c2occc2cc2ccc(=O)oc12` [Methoxsalen, reference compound] as the molecule, how does the Z-SCORE read?
A: 0.16

Q: For `C[C@](N)(Cc1ccc(O)c(O)c1)C(=O)O` [Methyldopa, reference compound], which Z-SCORE is on record?
A: 0.63

Q: For `Cc1cccc(C)c1OCC(C)N` (centres unmarked) [Mexitil, reference compound], which Z-SCORE is on record?
A: 1.1

Q: How did the Z-SCORE turn out when `Cc1onc(-c2ccccc2)c1C(=O)N[C@@H]1C(=O)N2[C@@H]1SC(C)(C)[C@@H]2C(=O)[O-].O.[Na+]` [Micropenin, reference compound] was run?
A: 0.25

Q: Which Z-SCORE does the source give for `Nc1cc(N2CCCCC2)nc(N)[n+]1[O-]` [Minoxidil, reference compound] here?
A: 0.25

Q: With `CC(=O)OCC[N+](C)(C)C` [Miochol, reference compound] as the molecule, how does the Z-SCORE read?
A: 0.45

Q: With `CCc1c(C)[nH]c2c1C(=O)C(CN1CCOCC1)CC2` (centres unmarked) [Moban, reference compound] as the molecule, how does the Z-SCORE read?
A: -0.44

Q: With `C/C(=C\C(=O)OCCCCCCCCC(=O)O)C[C@@H]1OC[C@H](C[C@@H]2O[C@H]2[C@@H](C)[C@H](C)O)[C@@H](O)[C@H]1O` [Mupirocin, reference compound] as the molecule, how does the Z-SCORE read?
A: 0.71

Q: How did the Z-SCORE turn out when `COc1ccc2cc(CCC(C)=O)ccc2c1` [NABUMETONE, reference compound] was run?
A: 1.61

Q: How did the Z-SCORE turn out when `CC(C)(C)NCC(O)COc1cccc2c1CC(O)C(O)C2` (centres unmarked) [NADOLOL, reference compound] was run?
A: 0.1

Q: How did the Z-SCORE turn out when `C=CCN1CC[C@]23c4c5ccc(O)c4O[C@H]2C(=O)CC[C@@]3(O)[C@H]1C5` [NALOXONE HYDROCHLORIDE, reference compound] was run?
A: -0.39

Q: Which Z-SCORE does the source give for `O=C1CC[C@@]2(O)[C@H]3Cc4ccc(O)c5c4[C@@]2(CCN3CC2CC2)[C@H]1O5` [NALTREXONE HYDROCHLORIDE, reference compound] here?
A: 0.59

Q: Which Z-SCORE does the source give for `CN1CCC[C@H]1c1cccnc1` [NICOTINE, reference compound] here?
A: -0.12
